Laboratory results as given in publication PMC7206119, “RIP1 inhibition blocks inflammatory diseases but not tumor growth or metastases” (Cell Death and Differentiation, 2019).

What was measured:
Assay in all cases: biochemical
Design in all cases: Thermo Fisher SelectScreen kinase panel: Z'-LYTE and Adapta activity, LanthaScreen binding
ACVR2B = ACVR2B (Homo sapiens, UniProt Q13705)
Protocol: (§1) 5 88 GNE684 was tested in Thermo Fisher Scientific SelectScreen assay (Madison, WI) 89 against 221 representative kinases at a concentration of 10 µM, which is 476-fold greater than the Ki app 90 for GNE684 against human RIP1 in the RIP1 enzyme 91 assay. The kinase assays were carried out using Z'-LYTE and Adapta activity and 92 LanthaScreen binding assays (Thermo Fisher Scientific, Madison WI) following 93 protocols developed and performed by Thermo Fisher Scientific 94 (https://www.thermofisher.com/us/en/home/products-and-services/services/custom-95 services/screening-and-profiling-services/selectscreen-profiling-service/selectscreen-96 kinase-profiling-service.html). 97 GNE684 was also tested against 468 kinases in the KINOMEscan scanMAX kinase 98 binding assay panel at a concentration of 10 µM following protocols developed and 99 performed by DiscoverX (http://www.discoverx.com/kinase_profiling).

AKT2 = AKT2 (Homo sapiens, UniProt P31751)
Protocol: as §1

CDK5/p25 = molecular target: T1, CDK5/p25 (Homo sapiens, UniProt Q00535)
T1 construct: p25
Protocol: as §1

CHK1 = molecular target: T2, CHK1 (Homo sapiens, UniProt O14757)
T2 construct: gene CHEK1
Protocol: as §1

CK1_gamma2 = molecular target: T3, CK1_gamma2 (Homo sapiens, UniProt P78368)
T3 construct: gene CSNK1G2
Protocol: as §1

CLK3 = CLK3 (Homo sapiens, UniProt P49761)
Protocol: as §1

EPHA3 = EPHA3 (Homo sapiens, UniProt P29320)
Sequence of EPHA3 (P29320 whole entry): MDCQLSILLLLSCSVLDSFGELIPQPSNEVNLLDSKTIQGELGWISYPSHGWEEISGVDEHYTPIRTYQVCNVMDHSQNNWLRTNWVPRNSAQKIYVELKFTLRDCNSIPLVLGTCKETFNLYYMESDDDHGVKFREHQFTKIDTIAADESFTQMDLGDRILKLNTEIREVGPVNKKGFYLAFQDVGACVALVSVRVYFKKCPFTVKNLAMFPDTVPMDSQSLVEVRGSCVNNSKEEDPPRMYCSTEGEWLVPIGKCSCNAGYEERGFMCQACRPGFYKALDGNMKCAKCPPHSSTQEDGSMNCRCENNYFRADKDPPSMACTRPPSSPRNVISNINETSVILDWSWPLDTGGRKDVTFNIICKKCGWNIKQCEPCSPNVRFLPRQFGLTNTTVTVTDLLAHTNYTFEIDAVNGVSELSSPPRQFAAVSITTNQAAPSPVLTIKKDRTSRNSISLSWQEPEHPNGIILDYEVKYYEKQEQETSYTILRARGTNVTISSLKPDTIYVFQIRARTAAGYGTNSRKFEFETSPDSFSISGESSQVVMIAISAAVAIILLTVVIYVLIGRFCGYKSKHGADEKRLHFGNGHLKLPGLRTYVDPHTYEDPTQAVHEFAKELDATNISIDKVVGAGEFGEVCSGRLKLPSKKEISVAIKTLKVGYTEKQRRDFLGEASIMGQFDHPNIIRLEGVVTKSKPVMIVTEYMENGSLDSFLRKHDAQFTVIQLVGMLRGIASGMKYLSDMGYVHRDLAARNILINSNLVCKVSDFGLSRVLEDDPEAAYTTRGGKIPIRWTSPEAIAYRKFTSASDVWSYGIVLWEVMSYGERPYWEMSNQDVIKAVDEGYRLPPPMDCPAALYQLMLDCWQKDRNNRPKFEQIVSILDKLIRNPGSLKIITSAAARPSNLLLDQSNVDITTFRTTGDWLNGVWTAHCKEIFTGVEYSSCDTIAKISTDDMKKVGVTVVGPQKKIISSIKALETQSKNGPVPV
Protocol: as §1

GRK3 = GRK3 (Homo sapiens, UniProt P35626)
Sequence of GRK3 (P35626 whole entry): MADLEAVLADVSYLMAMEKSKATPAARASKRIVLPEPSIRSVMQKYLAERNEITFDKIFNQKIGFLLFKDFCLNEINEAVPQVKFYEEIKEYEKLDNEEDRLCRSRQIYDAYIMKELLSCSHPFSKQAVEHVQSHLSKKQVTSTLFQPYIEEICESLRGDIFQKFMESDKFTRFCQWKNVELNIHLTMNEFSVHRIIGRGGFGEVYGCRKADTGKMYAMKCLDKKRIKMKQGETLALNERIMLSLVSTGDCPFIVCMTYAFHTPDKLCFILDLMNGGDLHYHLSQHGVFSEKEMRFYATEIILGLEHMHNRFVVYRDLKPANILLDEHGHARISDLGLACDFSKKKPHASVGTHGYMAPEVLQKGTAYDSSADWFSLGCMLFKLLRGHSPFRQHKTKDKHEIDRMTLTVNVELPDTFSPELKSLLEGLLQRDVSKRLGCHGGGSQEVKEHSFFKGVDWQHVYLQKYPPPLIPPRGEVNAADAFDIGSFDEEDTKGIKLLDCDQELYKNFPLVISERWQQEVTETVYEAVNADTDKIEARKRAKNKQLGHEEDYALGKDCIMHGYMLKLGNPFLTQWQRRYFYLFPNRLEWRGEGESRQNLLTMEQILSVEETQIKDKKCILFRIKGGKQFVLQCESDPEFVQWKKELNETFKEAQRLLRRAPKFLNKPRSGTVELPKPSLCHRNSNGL
Protocol: as §1

HIPK1 = HIPK1 (Homo sapiens, UniProt Q86Z02)
Protocol: as §1

IGF1R = IGF1R (Homo sapiens, UniProt P08069)
Protocol: as §1

IKK-beta = molecular target: T4, IKK-beta (Homo sapiens, UniProt O14920)
T4 construct: gene IKBKB
Protocol: as §1

JAK2 = JAK2 (Homo sapiens, UniProt O60674)
Sequence of JAK2 (O60674 whole entry): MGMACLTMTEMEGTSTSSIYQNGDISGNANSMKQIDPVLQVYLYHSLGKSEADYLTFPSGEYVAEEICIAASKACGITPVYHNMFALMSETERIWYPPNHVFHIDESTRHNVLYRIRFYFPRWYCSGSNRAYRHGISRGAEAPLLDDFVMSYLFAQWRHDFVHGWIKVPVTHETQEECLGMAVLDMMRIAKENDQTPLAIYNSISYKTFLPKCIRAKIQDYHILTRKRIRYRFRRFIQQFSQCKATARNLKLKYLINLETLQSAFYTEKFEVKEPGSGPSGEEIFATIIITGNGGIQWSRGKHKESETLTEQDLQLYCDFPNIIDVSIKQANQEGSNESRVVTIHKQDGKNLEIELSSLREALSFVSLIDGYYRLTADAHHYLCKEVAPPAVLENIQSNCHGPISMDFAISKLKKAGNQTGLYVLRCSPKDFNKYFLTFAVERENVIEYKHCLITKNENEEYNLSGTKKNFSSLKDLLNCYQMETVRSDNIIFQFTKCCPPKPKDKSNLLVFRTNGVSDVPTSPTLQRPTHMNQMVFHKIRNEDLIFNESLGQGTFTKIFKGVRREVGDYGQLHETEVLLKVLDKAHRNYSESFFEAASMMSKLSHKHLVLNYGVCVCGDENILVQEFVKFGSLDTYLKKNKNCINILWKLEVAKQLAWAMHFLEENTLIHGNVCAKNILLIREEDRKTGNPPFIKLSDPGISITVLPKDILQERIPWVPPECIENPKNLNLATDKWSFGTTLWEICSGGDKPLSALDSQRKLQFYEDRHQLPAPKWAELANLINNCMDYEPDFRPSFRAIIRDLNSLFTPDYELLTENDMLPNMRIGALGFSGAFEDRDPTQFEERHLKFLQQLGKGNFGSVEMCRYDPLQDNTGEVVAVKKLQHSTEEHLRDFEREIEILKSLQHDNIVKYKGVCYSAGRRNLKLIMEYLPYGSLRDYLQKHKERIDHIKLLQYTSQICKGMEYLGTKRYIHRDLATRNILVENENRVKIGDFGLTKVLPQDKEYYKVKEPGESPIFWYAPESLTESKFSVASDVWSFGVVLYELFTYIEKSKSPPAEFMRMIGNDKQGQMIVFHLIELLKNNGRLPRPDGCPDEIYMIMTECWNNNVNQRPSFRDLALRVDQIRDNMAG
Protocol: as §1

JNK1_alpha1 = molecular target: T5, JNK1_alpha1 (Homo sapiens, UniProt P45983)
T5 construct: gene MAPK8; isoform alpha1
Protocol: as §1

JNK3 = molecular target: T6, JNK3 (Homo sapiens, UniProt P53779)
T6 construct: gene MAPK10
T6 sequence (P53779 whole entry): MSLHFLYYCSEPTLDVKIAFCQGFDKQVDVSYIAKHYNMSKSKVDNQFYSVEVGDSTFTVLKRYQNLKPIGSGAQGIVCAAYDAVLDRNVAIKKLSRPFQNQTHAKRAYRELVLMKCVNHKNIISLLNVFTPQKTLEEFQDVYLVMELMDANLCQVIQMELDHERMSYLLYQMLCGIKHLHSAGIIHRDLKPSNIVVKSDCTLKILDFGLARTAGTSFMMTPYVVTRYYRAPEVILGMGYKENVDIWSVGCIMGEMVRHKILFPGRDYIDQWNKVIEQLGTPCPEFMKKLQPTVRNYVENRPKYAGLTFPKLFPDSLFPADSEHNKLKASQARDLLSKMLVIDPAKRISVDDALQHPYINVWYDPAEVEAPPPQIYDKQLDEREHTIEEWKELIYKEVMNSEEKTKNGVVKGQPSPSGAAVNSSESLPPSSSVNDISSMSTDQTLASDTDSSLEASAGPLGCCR
Protocol: as §1

MAPKAPK3 = MAPKAPK3 (Homo sapiens, UniProt Q16644)
Protocol: as §1

MLK1 = molecular target: T7, MLK1 (Homo sapiens, UniProt P80192)
T7 construct: gene MAP3K9
T7 sequence (P80192 whole entry): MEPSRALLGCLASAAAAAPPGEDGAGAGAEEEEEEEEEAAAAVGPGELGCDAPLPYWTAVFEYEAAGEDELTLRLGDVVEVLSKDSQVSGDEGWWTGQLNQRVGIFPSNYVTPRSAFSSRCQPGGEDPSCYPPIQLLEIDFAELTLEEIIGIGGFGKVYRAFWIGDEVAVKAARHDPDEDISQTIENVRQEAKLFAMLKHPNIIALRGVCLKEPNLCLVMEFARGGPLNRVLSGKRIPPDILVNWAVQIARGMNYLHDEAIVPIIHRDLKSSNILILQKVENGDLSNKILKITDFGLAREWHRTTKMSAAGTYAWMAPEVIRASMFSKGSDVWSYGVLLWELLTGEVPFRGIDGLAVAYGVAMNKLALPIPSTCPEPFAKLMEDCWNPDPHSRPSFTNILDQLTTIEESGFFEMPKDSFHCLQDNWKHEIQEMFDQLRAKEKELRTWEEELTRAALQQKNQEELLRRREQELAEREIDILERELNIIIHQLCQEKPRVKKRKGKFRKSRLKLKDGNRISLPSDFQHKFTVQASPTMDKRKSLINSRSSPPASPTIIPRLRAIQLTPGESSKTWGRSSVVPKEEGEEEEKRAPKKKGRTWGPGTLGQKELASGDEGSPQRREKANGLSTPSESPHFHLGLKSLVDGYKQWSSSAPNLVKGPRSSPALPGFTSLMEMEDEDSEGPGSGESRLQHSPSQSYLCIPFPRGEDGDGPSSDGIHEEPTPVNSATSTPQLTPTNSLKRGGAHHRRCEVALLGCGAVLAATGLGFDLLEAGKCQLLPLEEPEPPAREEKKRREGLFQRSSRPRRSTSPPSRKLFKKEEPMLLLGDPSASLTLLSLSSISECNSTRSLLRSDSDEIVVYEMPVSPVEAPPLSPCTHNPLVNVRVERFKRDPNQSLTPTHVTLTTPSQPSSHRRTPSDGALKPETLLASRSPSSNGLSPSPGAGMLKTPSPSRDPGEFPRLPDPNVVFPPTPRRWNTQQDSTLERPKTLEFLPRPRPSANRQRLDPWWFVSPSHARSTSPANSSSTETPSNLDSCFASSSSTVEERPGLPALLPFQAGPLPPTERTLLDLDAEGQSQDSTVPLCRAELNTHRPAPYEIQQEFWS
Protocol: as §1

MLK2 = molecular target: T8, MLK2 (Homo sapiens, UniProt Q02779)
T8 construct: gene MAP3K10
Protocol: as §1

PAK4 = PAK4 (Homo sapiens, UniProt O96013)
Protocol: as §1

PLK3 = PLK3 (Homo sapiens, UniProt Q9H4B4)
Protocol: as §1

PhK_gamma2 = molecular target: T9, PhK_gamma2 (Homo sapiens, UniProt P15735)
T9 construct: gene PHKG2
T9 sequence (P15735 whole entry): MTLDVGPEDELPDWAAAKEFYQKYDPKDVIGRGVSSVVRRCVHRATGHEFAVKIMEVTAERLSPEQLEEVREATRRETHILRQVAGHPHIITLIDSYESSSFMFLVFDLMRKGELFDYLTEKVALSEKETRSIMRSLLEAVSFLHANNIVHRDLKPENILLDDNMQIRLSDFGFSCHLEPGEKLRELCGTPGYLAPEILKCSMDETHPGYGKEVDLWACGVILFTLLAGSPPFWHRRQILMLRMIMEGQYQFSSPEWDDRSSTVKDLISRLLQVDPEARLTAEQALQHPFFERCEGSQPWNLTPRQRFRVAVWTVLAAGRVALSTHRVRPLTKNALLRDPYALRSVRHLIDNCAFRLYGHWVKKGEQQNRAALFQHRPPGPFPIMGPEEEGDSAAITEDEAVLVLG
Protocol: as §1

STK33 = STK33 (Homo sapiens, UniProt Q9BYT3)
Protocol: as §1

SYK = SYK (Homo sapiens, UniProt P43405)
Protocol: as §1

TTK = TTK (Homo sapiens, UniProt P33981)
Protocol: as §1

Compound `COc1cc2c(cn1)N(C)C(=O)[C@@H](NC(=O)c1nc3n(n1)[C@H](c1ccccc1)CC3)CC2` [GNE684, (S)-N-((S)-7-methoxy-1-methyl-2-oxo-2,3,4,5-tetrahydro-1H-pyrido[3,4-b]azepin-3-yl)-5-phenyl-6,7-dihydro-5H-pyrrolo[1,2-b][1,2,4]triazole-2-carboxamide] has an inhibition at 10 µM (ACVR2B) of 5%, an inhibition at 10 µM (AKT2) of 4.5% and an inhibition at 10 µM (CDK5/p25) of 4.5%. It also gave an inhibition at 10 µM (CHK1) of -7%, an inhibition at 10 µM (CK1_gamma2) of 2% and an inhibition at 10 µM (CLK3) of 1.5%. The inhibition at 10 µM (EPHA3) was -3.5%, the inhibition at 10 µM (GRK3) was 2.5% and the inhibition at 10 µM (HIPK1) was 0%. It also gave an inhibition at 10 µM (IGF1R) of 5%, an inhibition at 10 µM (IKK-beta) of 8.5% and an inhibition at 10 µM (JAK2) of 2.5%. For the same compound, the inhibition at 10 µM (JNK1_alpha1) was -5.5%, the inhibition at 10 µM (JNK3) was 3% and the inhibition at 10 µM (MAPKAPK3) was 3%. For the same compound, the inhibition at 10 µM (MLK1) was 7.5%, the inhibition at 10 µM (MLK2) was 0% and the inhibition at 10 µM (PAK4) was 14%. The inhibition at 10 µM (PLK3) was 5%, the inhibition at 10 µM (PhK_gamma2) was 1% and the inhibition at 10 µM (STK33) was 0%. The inhibition at 10 µM (SYK) was -1.5% and the inhibition at 10 µM (TTK) was -2.5%.
